Measurements taken from US8796234B2, “Crosslinking branched molecule through thiol-disulfide exchange to form hydrogel” (Agency for Science, Technology and Research, priority 2009, dated 2014).

Experiment: Drug loading capacity of sample hydrogel
Type: physicochemical
Conditions: poly(BAC2-AEPZ1)-PEG hydrogel
Description: Aqueous solutions of 5 wt % poly(BAC2-AEPZ1)-PEG was prepared and left to equilibrate overnight at room temperature. Appropriate amounts of doxorubicin (Dox) were loaded to make the concentration of Dox in the polymer solution 5 mg mL^−1. Subsequently, small amount of 5M sodium hydroxide (NaOH) was added in and was being vortexed for a few minutes to adjust pH to more than 12, and the solutions turn blue. Then, the solution was left undisturbed during hydrogel formation for predetermined time. After predetermined time, a slight in excessive of 5M HCl was added to neutralize the hydrogel to keep the hydrogel stable, and the hydrogel turned red. […]
The results were presented in terms of cumulative release as a function of time: Cumulative amount release (%)=(Mt/M∞) where Mt is the amount of Dox released from the hydrogel at time t and M∞ is the estimate amount of Dox loaded in the hydrogel and was calculated from the weight difference of the initial Dox solution concentration and the remaining Dox solution concentration (combining rinsing water and remaining solution expelled from the hydrogel) after loading.
1 mL of Pac/methanol was extracted from saturated stock solution (50 mg/mL) and added to a vial. […] The column effluent was detected UV spectrophotometrically at wavelength of 227 nm. […]

loading capacity of drug in the sample hydrogel	SMILES
5-10%	COc1cccc2c1C(=O)c1c(O)c3c(c(O)c1C2=O)C[C@@](O)(C(=O)CO)C[C@@H]3O[C@H]1C[C@H](N)[C@H](O)[C@H](C)O1 [Dox, doxorubicin]
30-50%	CC(=O)O[C@H]1C(=O)[C@@]2(C)[C@H]([C@H](OC(=O)c3ccccc3)[C@]3(O)C[C@H](OC(=O)[C@H](O)[C@@H](NC(=O)c4ccccc4)c4ccccc4)C(C)=C1C3(C)C)[C@]1(OC(C)=O)CO[C@@H]1C[C@@H]2O [Pac, Paclitaxel]
